The values below come from article PMC5478869, “New Hydroxycinnamic Acid Esters as Novel 5-Lipoxygenase Inhibitors That Affect Leukotriene Biosynthesis” (Mediators of Inflammation, 2017).

“Also recorded” adds a separate entry of the source.

In assay [1] the target is T1, 5-LO (Homo sapiens, UniProt P09917).
T1 sequence (P09917 1-674): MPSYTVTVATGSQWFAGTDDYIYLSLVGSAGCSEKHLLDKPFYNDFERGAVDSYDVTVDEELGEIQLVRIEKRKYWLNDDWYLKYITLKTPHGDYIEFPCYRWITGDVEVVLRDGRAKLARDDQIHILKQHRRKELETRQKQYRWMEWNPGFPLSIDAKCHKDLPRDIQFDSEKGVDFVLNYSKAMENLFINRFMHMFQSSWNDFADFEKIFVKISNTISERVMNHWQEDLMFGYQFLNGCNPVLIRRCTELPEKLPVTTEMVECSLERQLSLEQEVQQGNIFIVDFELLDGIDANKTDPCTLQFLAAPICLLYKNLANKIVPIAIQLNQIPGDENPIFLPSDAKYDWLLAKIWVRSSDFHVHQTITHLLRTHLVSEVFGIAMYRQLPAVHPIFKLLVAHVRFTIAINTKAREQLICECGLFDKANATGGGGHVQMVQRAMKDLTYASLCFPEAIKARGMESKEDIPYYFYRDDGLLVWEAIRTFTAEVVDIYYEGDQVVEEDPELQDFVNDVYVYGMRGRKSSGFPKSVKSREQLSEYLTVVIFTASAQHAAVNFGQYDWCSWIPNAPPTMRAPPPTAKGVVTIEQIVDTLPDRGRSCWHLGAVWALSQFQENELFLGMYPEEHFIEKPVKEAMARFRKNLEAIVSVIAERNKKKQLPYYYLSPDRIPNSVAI
Kind of assay: Biosynthesis of 5-LO products in HEK293 cells expressing 5-LO and FLAP (A23187 + arachidonic acid). In kind it is cell-based. Further details: expressed in transfected cells; host or cells: HEK293. Conditions: 1 μM compound, 10 μM A23187 + 10 μM arachidonic acid, 15 min. How it is done: HEK293 cells expressing both 5-LO and the 5-lipoxygenase activating protein (FLAP) were generated as previously reported. For cell stimulation of 5-LO products, transfected HEK293 cells were collected following trypsinization and washed and the cell pellet was resuspended in Hank's balanced salt solution (HBSS, Lonza) containing 1.6 mM CaCl2 at a concentration of 5 × 10^5 cells/ml. Cells were preincubated with each compound at the indicated concentration for 5 min at 37°C. Cells were then stimulated for 15 minutes at 37°C with the addition of 10 μM calcium ionophore A23187 (Sigma-Aldrich) and 10 μM arachidonic acid (Cayman Chemical). Stimulations were stopped by adding 0.5 volume of cold MeOH:MeCN (1 : 1) containing 100 ng/ml of 19-OH prostaglandin B2 (PGB2) as internal standard. Samples were then processed and 5-LO products were analyzed by reversed-phase high-performance liquid chromatography (RP-HPLC) as described previously.
To evaluate CAPE analogues as potential inhibitors of the biosynthesis of 5-LO products, a first series of experiments was performed in HEK293 cells expressing both 5-LO and FLAP as previously described. HEK293 cells were first preincubated with the test compounds (1 μM), then stimulated in the presence of arachidonic acid and calcium ionophore A23187 to induce the biosynthesis of 5-LO products (Figure 2(a)). […] Based on these criteria, compounds 9, 13, 14, 15, 16, and 19 were selected for subsequent analyses.
Figure 2 Effect of the test compounds on the biosynthesis of 5-LO products in transfected HEK293 cells (a) and thapsigargin-stimulated PMNL (b). (a) HEK293 cells expressing both 5-LO and FLAP were incubated in presence of the indicated compounds (1 μM) or their diluent (control, 0.5% DMSO) for 5 min, then biosynthesis of 5-LO products was initiated with the addition of 10 μM calcium ionophore A23187 and 10 μM arachidonic acid for 15 min. After stimulation, reactions were stopped and samples were processed for analysis of 5-LO products by RP-HPLC. Total 5-LO products measured represent the sum of LTB4, its trans isomers, and 5-hydroxyeicosatetraenoic acid. (b) Freshly isolated human PMNL were incubated in presence of test compounds (or their diluent control, DMSO 0.5%) at the indicated concentrations for 5 min. Biosynthesis of the 5-LO products was initiated with the addition of 1 μM of thapsigargin, followed by a 15 min incubation period at 37°C. The stimulation was then stopped and samples were processed for RP-HPLC analysis and total 5-LO products quantification. Total 5-LO products measured represent the sum of LTB4, its trans isomers, 20-COOH- and 20-OH-LTB4 and 5-hydroxyeicosatetraenoic acid. Data are expressed as means ± SEM of at least 3 independent experiments. ^∗Different from control, as determined by one-way ANOVA with Dunnett's multiple comparison test (p < 0.05).

Assay [2] addresses T1, 5-LO. Details: endogenous in cells; host or cells: human polymorphonuclear leukocytes (PMNL) isolated from whole blood; method as in PMID 22347509. Conditions: cited from earlier work.
Assay [3] relates to arachidonic acid release. Conditions: cited from earlier work.

Turning to `COC(=O)/C=C/c1ccc(O)c(O)c1` [Compound 3], the “Inhibition of biosynthesis of 5-LO products in transfected HEK293 cells” value (shortened to “Inhibition … in transfected HEK293 cells”) in assay [1] is “without inhibitory activity”. Still for that read-out and setting: next, `CCOC(=O)/C=C/c1ccc(O)c(O)c1` [Compound 4, ethyl caffeate]: “without inhibitory activity”; `O=C(/C=C/c1ccc(O)c(O)c1)Oc1ccccc1` [Compound 10]: “not as effective at inhibiting 5-LO as CAPE (2)”. `O=C(/C=C/c1ccc(O)c(O)c1)OCc1ccccc1` [Compound 11]: the “Inhibition … in transfected HEK293 cells” value in assay [1] was “not as effective at inhibiting 5-LO as CAPE (2)”. Turning to `CC(c1cc2ccccc2s1)N(O)C(N)=O` (stereo not shown) [Zileuton (1), zileuton, reference compound], in assay [1], the “Inhibition … in transfected HEK293 cells” value is “less effective than the selected compounds; also recorded: significantly inhibited the biosynthesis of 5-LO products”. Besides, the “Inhibition of biosynthesis of 5-LO products in whole blood (previous studies)” value in assay [2] was “slightly better inhibitor of the biosynthesis of 5-LO products in whole blood than CAPE (2)”. The “Inhibition of liberation of cellular arachidonic acid (previously shown)” value in assay [3] is on record as “previously shown to inhibit the liberation of cellular arachidonic acid”.
